In ChEMBL document CHEMBL1138777, “Frontal affinity chromatography with MS detection of EphB2 tyrosine kinase receptor. 1. Comparison with conventional ELISA” (J Med Chem, 2004) one finds Kd and IC50 data, which are given here for six compounds.

Structures are written as SMILES.

Assay [1] in a line: Binding constant for EphB2 tyrosine kinase.
Assay [2] can be described thus: Inhibition of EphB2 receptor tyrosine kinase in ELISA assay. A general note: In an ELISA, binding on a coated surface is turned into a signal by an enzyme label.

For orientation: Kd means a measure of binding affinity in units of concentration. The IC50 is the concentration at which inhibition is half-maximal. With `COc1cc2ncnc(Nc3cccc(O)c3)c2cc1OC`, the Kd in assay [1] was 2.4 µM. The same compound gave an IC50 in assay [2] of 1.2 µM.

In assay [1], `COc1cc2ncnc(Nc3cccc(Br)c3)c2cc1OC` displayed a Kd of 8.1 µM. In addition, the IC50 in assay [2] was 10.2 µM.

For `CN(C)c1ccc(/C=C2\C(=O)Nc3ccccc32)cc1`, in assay [1], binding was put at a Kd of 19.5 µM. The compound also gave an IC50 in assay [2] of 27.5 µM.

For the compound `CC(C)(C)n1nc(-c2ccc(Cl)cc2)c2c(N)ncnc21`, the Kd in assay [1] was determined as 36.5 µM. This compound registered a half-maximal inhibitory concentration (IC50) in assay [2] of 52 µM.

Take `CNc1cc2c(Nc3cccc(Br)c3)ncnc2cn1`: in assay [1], the Kd came out at 21.9 µM. 34 µM corresponded to half-maximal inhibition in assay [2] (IC50).

In assay [1], `COc1cc2ncnc(Nc3ccc(Oc4ccccc4)cc3)c2cc1OC` displayed a Kd of 58.4 µM. The same compound returned an IC50 in assay [2] of 86 µM.
